In ChEMBL document CHEMBL1201862, “PubChem BioAssay data set” (2004):
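Cells were grown in 96-well plates and exposed to each compound for 48 hours at five concentrations; endpoints were interpolated linearly between bracketing concentrations, or set to the highest concentration if not reached. GI50: concentration for 50% inhibition of growth.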 The source made the active and inactive calls. No stated cut-off is given here; in the data, active = GI50 up to about 1.1 µM and inactive = higher.

How the values were obtained:
Experiment in all cases: NCI-60 cell line screen, 48 h
[1] = system: OVCAR-4
[2] = system: SF-295
[3] = system: PC-3
[4] = system: IGROV-1
[5] = system: SK-MEL-2
[6] = system: MDA-MB-231
[7] = system: SNB-75
[8] = system: BT-549
[9] = system: NCI-H226
[10] = system: MDA-MB-435
[11] = system: SNB-19
[12] = system: TK-10
[13] = system: SW-620
[14] = system: CAKI-1
[15] = system: MOLT-4
[16] = system: HOP-92
[17] = system: HCC 2998

Measured: GI50

CCOC(=O)C1(C/C=C\CBr)CCCC1=O (stereo not drawn)
inactive: [1] 34.4 µM | [2] 60 µM | [3] 36.7 µM | [4] 24.9 µM | [5] 31.3 µM | [6] 25.6 µM | [7] 27 µM | [8] 30.3 µM | [9] 20.8 µM | [10] 22.1 µM | [11] 38.3 µM | [12] 13.2 µM | [13] 22.4 µM | [14] 48.8 µM

C/C(=N\O)c1ccc2ccc3ccccc3c2c1
inactive: [1] 23 µM | [2] 37.3 µM | [3] 32.3 µM | [15] 18.5 µM | [4] 44 µM | [5] 43 µM | [6] 28.1 µM | [7] 25.5 µM | [9] 26.4 µM | [10] 22.2 µM | [11] 62.8 µM | [12] 37.9 µM | [13] 30.6 µM | [14] 51.9 µM

N=C(N)N1CCC(N2CCOCC2)CC1
inactive: [1] > 100 µM | [2] > 100 µM | [15] > 100 µM | [16] > 100 µM | [4] > 100 µM | [6] > 100 µM | [7] > 100 µM | [9] > 100 µM | [10] > 100 µM | [11] > 100 µM | [17] > 100 µM | [12] > 100 µM | [13] > 100 µM

S=c1sc2ccccc2n1CN1CCN(Cc2ccccc2)CC1
inactive: [1] > 100 µM | [2] > 100 µM | [3] > 100 µM | [15] > 100 µM | [16] > 100 µM | [4] > 100 µM | [5] > 100 µM | [7] > 100 µM | [8] > 100 µM | [9] > 100 µM | [10] > 100 µM | [11] > 100 µM | [17] > 100 µM | [12] > 10 µM | [13] > 100 µM | [14] > 100 µM

Brc1ccc2nc(-c3cccs3)nc(N3CCN(c4ccccc4)CC3)c2c1
inactive: [1] > 100 µM | [2] > 100 µM | [3] > 100 µM | [16] > 100 µM | [4] > 100 µM | [5] > 100 µM | [6] > 100 µM | [7] > 100 µM | [8] > 100 µM | [9] > 100 µM | [10] > 100 µM | [11] > 100 µM | [17] > 100 µM | [12] > 100 µM | [13] > 100 µM | [14] > 100 µM
